Laboratory results published in patent publication US20110130432A1, “Heterocyclic Carboxamides For Use As Thrombin Inhibitors” (ASTRAZENECA AB, priority 2008, published 2011).

What follows are compounds tested against T1, Human α-thrombin (Homo sapiens, UniProt P00734) (assay: Test A: Determination of Thrombin Inhibition with a Chromogenic, Robotic Assay). Details: chromogenic substrate S-2366 0.30 mmol/L, α-thrombin 0.020 NIHU/mL, 40 minutes incubation at 37° C.
T1 construct: Human α-thrombin; purchased Sigma Chemical Co. or Hematologic Technologies
Type: biochemical
Method: Determination of Thrombin Inhibition with a Chromogenic, Robotic Assay
The thrombin inhibitor potency is measured with a chromogenic substrate method, in a Plato 3300 robotic microplate processor (Rosys AG, CH-8634 Hombrechtikon, Switzerland), using 96-well, half volume microtitre plates (Costar, Cambridge, Mass., USA; Cat No 3690). Stock solutions of test substance in DMSO (72 μL), 0.1-1 mmol/L, are diluted serially 1:3 (24+48 μL) with DMSO to obtain ten different concentrations, which are analyzed as samples in the assay. 2 μL of test sample is diluted with 124 μL assay buffer, 12 μL of chromogenic substrate solution (S-2366, Chromogenix, Mölndal, Sweden) in assay buffer and finally 12 μL of α-thrombin solution (Human α-thrombin, Sigma Chemical Co. or Hematologic Technologies) in assay buffer, are added, and the samples mixed. The final assay concentrations are: test substance […], S-2366 0.30 mmol/L, α-thrombin 0.020 NIHU/mL The linear absorbance increment during 40 minutes incubation at 37° C. is used for calculation of percentage inhibition for the test samples, as compared to blanks without inhibitor. The IC50 value, corresponding to the inhibitor concentration which causes 50% inhibition of the thrombin activity, is calculated from a log concentration vs. % inhibition curve.
Compound CCCC(=O)O[C@@H](C(=O)N1N=CC[C@H]1C(=O)NCc1cc(Cl)ccc1-n1cnnn1)c1ccc(F)cc1 [Example 25, (1R)-2-[(5S)-5-{[5-Chloro-2-(1H-tetrazol-1-yl)benzyl]carbamoyl}-4,5-dihydro-1H-pyrazol-1-yl]-1-(4-fluorophenyl)-2-oxoethyl butanoate] has an IC50 of 160 nM.
For O=C(NCc1cc(Cl)ccc1-n1cnnn1)[C@@H]1CC=NN1C(=O)[C@H](O)C1CCCC1 [Example 5, (5S)—N-[5-Chloro-2-(1H-tetrazol-1-yl)benzyl]-1-[(2R)-2-cyclopentyl-2-hydroxyacetyl]-4,5-dihydro-1H-pyrazole-5-carboxamide], the IC50 was 24 nM.
In the case of CCC(=O)Oc1cc(C)cc(C)c1C(C)(C)CC(=O)O[C@@H](C(=O)N1N=CC[C@H]1C(=O)NCc1cc(Cl)ccc1-n1cnnn1)c1ccc(F)cc1 [Example 30, (R)-2-((S)-5-(5-Chloro-2-(1H-tetrazol-1-yl)benzylcarbamoyl)-4,5-dihydro-1H-pyrazol-1-yl)-1-(4-fluorophenyl)-2-oxoethyl 3-(2,4-dimethyl-6-(propionyloxy)phenyl)-3-methylbutanoate], the IC50 is reported as 660 nM.
Compound O=C(NCc1cc(Cl)ccc1-n1cnnn1)[C@@H]1CCON1C(=O)C(O)c1ccccc1F (stereo partly drawn) [Example 36, (3S)—N-[5-Chloro-2-(1H-tetrazol-1-yl)benzyl]-2-[(2-fluorophenyl)(hydroxy)acetyl]isoxazolidine-3-carboxamide] has an IC50 of 94 nM.
O=C(NCc1cc(Cl)ccc1-n1cnnn1)[C@@H]1CC=NN1C(=O)C(O)c1ccc(F)cc1F (stereo partly drawn) [Example 6, (5S)—N-[5-Chloro-2-(1H-tetrazol-1-yl)benzyl]-1-[(2,4-difluorophenyl)(hydroxy)acetyl]-4,5-dihydro-1H-pyrazole-5-carboxamide] showed an IC50 of 35 nM.
Work on O=C(NCc1cc(Cl)ccc1-n1cnnn1)[C@@H]1CCNN1C(=O)[C@H](O)C1CCCCC1 [Example 55, (3S)—N-[5-Chloro-2-(1H-tetrazol-1-yl)benzyl]-2-[(2R)-2-cyclohexyl-2-hydroxyacetyl]pyrazolidine-3-carboxamide] yielded an IC50 of 8.4 nM.
